Assay results: the NIST ThermoML archive (doi:10.1021/je100839v)
Numbers after ± are expanded uncertainties. Each block holds one molecule with its values, some of them ahead of it.

Conditions: for Glass transition temperature: DTA; for vapor or sublimation pressure: Liquid, Closed cell (Static) method

- Glass transition temperature: -62.0 ± 3 °C
SMILES: CCCCn1cc[n+](C)c1.[I-] [1-butyl-3-methylimidazolium iodide]

- Glass transition temperature: -85.0 ± 3 °C
SMILES: CCCCn1cc[n+](C)c1.F[B-](F)(F)F [1-butyl-3-methylimidazolium tetrafluoroborate]

- Glass transition temperature: -89.0 ± 3 °C
SMILES: CCCCn1cc[n+](C)c1.N#C[S-] [1-butyl-3-methylimidazolium thiocyanate]

- Glass transition temperature: -86.0 ± 3 °C
SMILES: CCOS(=O)(=O)[O-].CCn1cc[n+](C)c1 [1-ethyl-3-methylimidazolium ethyl sulfate]

- vapor or sublimation pressure (313.85 K): 8.1 ± 3.1 kPa
- vapor or sublimation pressure (318.65 K): 10.4 ± 3.2 kPa
- vapor or sublimation pressure (323.45 K): 13.2 ± 3.3 kPa
- vapor or sublimation pressure (328.35 K): 16.5 ± 3.3 kPa
- vapor or sublimation pressure (333.35 K): 20.1 ± 3.5 kPa
- vapor or sublimation pressure (338.15 K): 24.9 ± 3.7 kPa
- vapor or sublimation pressure (343.05 K): 30.6 ± 3.8 kPa
SMILES: O [water]
